Columns and labels:
DAT = biological target: T1, DAT (Mus musculus, UniProt Q61327); assay: Competition binding of [3H]WIN35,428 to DAT in mouse striatal homogenates
T1 construct: from tissue; host or cells: striatum of male SERT+/- mice
Procedure: (§1) Thus, in the current experiments, male constitutive SERT+/- mice weighing 25-30g were used, 3 per assay. […] Mice were euthanized by cervical dislocation without use of anesthesia to prevent anesthetic-induced attenuation of transporter binding sites. Whole hippocampi or striatum were harvested and placed in 30 ml of ice-cold buffer specific to each assay.
(§2) Tissue Collection and Preparation: Mice were humanely euthanized by cervical dislocation and decapitated without anesthesia to collect fresh brain tissues without compromising transporter binding properties. Striatum from each mouse were placed in a round 50 ml polycarbonate tube (Nalge Nunc, Rochester, NY, USA) containing 30 mM sodium phosphate and 0.32 M sucrose for DAT binding as in Reith and Coffey^16. […] All tissues were homogenized at 26,000 RPM for 1 min with a Polytron tissue homogenizer (Brinkman Instruments, Westbury, NY, USA). […] The supernate was discarded, and the pellet re-suspended in 25 ml buffer on ice using a Potter Elvehjem 10 ml glass and teflon homogenizer. The homogenate was re-centrifuged for 10 min at 36,000 x g.
The final pellet was re-suspended in 30 mM sodium phosphate and 0.32 M sucrose pH 7.4 at 4°C, and binding assays were carried out in duplicate for 2 hours at 4°C.
Labeled homogenates were captured through filtration under vacuum onto glass fiber filters pre-soaked in 0.5% polyethyleneimine (Sigma) on a Brandel tissue harvester (Gaithersburg, MD). Filters were washed twice more with 4 ml of buffer.
(§3) Data Analysis: Binding data were analyzed using non-linear regression curve fitting with GraphPad Prism (La Jolla, CA, USA).

hOCT3 [1] = biological target: T2, hOCT3 (Homo sapiens, UniProt O75751); assay: Inhibition of [3H]MPP+ uptake into HEK293 cells stably expressing hOCT3; format: cell-based
T2 construct: expressed in transfected cells
T2 sequence (O75751 1-556): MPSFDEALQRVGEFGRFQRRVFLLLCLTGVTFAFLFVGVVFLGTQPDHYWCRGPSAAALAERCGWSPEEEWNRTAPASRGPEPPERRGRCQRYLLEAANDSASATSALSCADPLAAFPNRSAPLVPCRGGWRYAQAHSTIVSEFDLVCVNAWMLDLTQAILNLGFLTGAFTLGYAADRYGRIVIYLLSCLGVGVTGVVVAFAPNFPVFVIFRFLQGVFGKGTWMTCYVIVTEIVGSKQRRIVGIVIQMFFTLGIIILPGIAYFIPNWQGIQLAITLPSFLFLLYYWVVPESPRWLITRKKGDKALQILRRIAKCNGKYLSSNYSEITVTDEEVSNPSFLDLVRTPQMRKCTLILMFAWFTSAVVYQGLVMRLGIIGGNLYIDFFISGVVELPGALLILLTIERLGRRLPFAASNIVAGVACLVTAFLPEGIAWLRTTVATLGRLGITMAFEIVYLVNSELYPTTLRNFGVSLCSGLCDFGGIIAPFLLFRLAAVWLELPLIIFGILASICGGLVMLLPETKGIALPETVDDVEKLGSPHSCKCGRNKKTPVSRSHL
Procedure: Mechanically detached HEK293 cells grown to confluence in 4-5 ml flasks were suspended in 3-4 ml of media in a 15 ml polypropylene conical tube.
Cells were harvested on a Brandel 48 well harvester by vacuum filtration onto glass fiber filter strips (Brandel, Gaithersburg, MD, USA) pre-soaked in a 1% polyethalineamine saline solution. […] Protein concentration of the cell suspension was determined after solubilization in 1N NaOH against known concentrations of bovine serum albumen with Bradford reagent as for mouse brain homogenates.
Data Analysis: Experiments were performed in triplicate. Percent of total binding was calculated, and uptake kinetics determined with GraphPad Prism.

NET [2] = biological target: T3, NET (Mus musculus, UniProt O55192); design: from tissue; host or cells: hippocampus of male SERT+/- mice; method as in earlier work; settings: known Kd from prior studies, used to calculate Ki; ref 20 (SI); read-out: Kd of hot ligand at NET; cited from earlier work
OCT3+/+ and OCT3-/- mice [3] = assay: Sensitization of locomotor activity during CPP conditioning sessions; format: in vivo; settings: for Locomotor sensitization, first vs. 4th session Mean Difference: sexes pooled, ethanol 1 g/kg and/or cocaine […]
hSERT = hSERT (Homo sapiens, UniProt P31645); settings: 10 µM cocaine, 10 µM APP+
hDAT = hDAT (Homo sapiens, UniProt Q01959); settings: 10 µM APP+
hOCT3 [4] = biological target: T2, hOCT3; design: method as in PMID 29773909; settings: previously shown; cited from earlier work
OCT3 = test system: OCT3; design: method as in PMID 29773909, PMID 16581093; settings: at concentrations lower than 100 µM; cited from earlier work
[5] = test system: DA clearance in dorsal striatum; assay: In vivo high-speed chronoamperometry of DA clearance in dorsal striatum; settings: for EC50, half maximally effective amount to inhibit DA clearance (T80) / Emax, maximal inhibition of DA clearance (percent increase in T80): 2 min post-intrastriatal application; for Emax, maximal inhibition of DA clearance (percent increase in T80): 4-parameter logistic fit; for percent change in T20-60 value from baseline / percent change in peak amplitude of DA signal from baseline: dorsal striatum, 2 minutes following administration, mean and SEM; for Effect on DA clearance time (T80): intrastriatal application, ethanol ~0.5-10 mM, cocaine 1-10 µM at recording site, 2 min after drug
hOCT3 [6] = biological target: T2, hOCT3; assay: Real-time uptake of fluorescent substrate ASP+ in YFP-hOCT3 HEK293 cells; format: cell-based; settings: 3 µM ASP+
SERT = SERT (Mus musculus, UniProt Q60857); settings: ethanol 3.4 nM up to 1 M, hippocampal homogenates
Procedure: as §1, §2
Radioligand binding to SERT was performed on hippocampal homogenates according to the procedure of D’Amato et al.^19. […]
as §3

NET [7] = biological target: T3, NET; settings: ethanol 3.4 nM up to 1 M, hippocampal homogenates
Procedure: as §1
Tissue Collection and Preparation: Mice were humanely euthanized by cervical dislocation and decapitated without anesthesia to collect fresh brain tissues without compromising transporter binding properties. Striatum from each mouse were placed in a round 50 ml polycarbonate tube (Nalge Nunc, Rochester, NY, USA) containing 30 mM sodium phosphate and 0.32 M sucrose for DAT binding as in Reith and Coffey^16. […] All tissues were homogenized at 26,000 RPM for 1 min with a Polytron tissue homogenizer (Brinkman Instruments, Westbury, NY, USA). […] The supernate was discarded, and the pellet re-suspended in 25 ml buffer on ice using a Potter Elvehjem 10 ml glass and teflon homogenizer. The homogenate was re-centrifuged for 10 min at 36,000 x g. […]
as §3

hNET = hNET (Homo sapiens, UniProt P23975)
[8] = rats, systemic administration of 1 mg/kg of ethanol (i.p.); cited from earlier work
OCT3+/+ and OCT3-/- mice [9] = assay: Conditioned place preference (CPP); format: in vivo; settings: ethanol 1 g/kg + cocaine […] i.p.
Procedure: In the same procedure, sensitization of cocaine-induced locomotion (in the presence and absence of ethanol) was measured. Loss of righting reflex (LORR) was assessed as described previously [36].
For CPP and sensitization to the locomotor stimulant effects of these drugs, mice were injected i.p. with physiological saline, saline + EtOH (100 mg/kg), saline + cocaine (3.2 mg/kg), or EtOH (100 mg/kg) + cocaine (3.2 mg/kg) immediately prior to assay. […] For LORR behavioral assays, mice were injected i.p. with a sedative dose of EtOH, at 3.2 g/kg (base weight per kilogram body weight).
CPP. Conditioned place preference (CPP) in rodents, which is often used to model abuse-related drug effects, is shown by a preference for an environment previously paired with a drug compared with an environment previously paired with vehicle^31, 32. Mice were exposed to an unbiased, one-compartment place-conditioning procedure, with sessions conducted once per day (see^12, 13). […]
This analysis was followed with separate two-way ANOVAs to further probe sex*genotype and treatment*genotype interactions. […] There were no interaction or main effects of sex on sensitization, so male and female data were pooled for further analysis, in which effects of genotype and days were assessed separately for each drug treatment using two-way repeated measures ANOVA’s. […]

T1 sequence (Q61327 whole entry): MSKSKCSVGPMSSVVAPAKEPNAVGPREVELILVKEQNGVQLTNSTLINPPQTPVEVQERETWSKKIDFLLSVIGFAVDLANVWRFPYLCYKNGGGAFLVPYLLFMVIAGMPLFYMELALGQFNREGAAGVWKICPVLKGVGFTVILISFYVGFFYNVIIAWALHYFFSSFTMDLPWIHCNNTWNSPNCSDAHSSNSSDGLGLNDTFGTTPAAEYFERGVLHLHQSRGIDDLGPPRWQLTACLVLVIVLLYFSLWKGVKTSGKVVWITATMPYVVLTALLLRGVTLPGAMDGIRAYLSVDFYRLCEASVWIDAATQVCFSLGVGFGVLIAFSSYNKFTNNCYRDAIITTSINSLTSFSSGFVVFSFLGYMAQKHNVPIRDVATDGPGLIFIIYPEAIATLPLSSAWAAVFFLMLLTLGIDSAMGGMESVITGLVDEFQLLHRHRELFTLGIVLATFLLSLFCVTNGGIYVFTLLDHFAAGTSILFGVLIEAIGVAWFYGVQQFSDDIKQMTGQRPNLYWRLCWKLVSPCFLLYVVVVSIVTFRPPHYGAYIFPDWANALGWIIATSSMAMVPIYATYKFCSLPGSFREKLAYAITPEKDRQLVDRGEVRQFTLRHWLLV
T3 sequence (O55192 whole entry): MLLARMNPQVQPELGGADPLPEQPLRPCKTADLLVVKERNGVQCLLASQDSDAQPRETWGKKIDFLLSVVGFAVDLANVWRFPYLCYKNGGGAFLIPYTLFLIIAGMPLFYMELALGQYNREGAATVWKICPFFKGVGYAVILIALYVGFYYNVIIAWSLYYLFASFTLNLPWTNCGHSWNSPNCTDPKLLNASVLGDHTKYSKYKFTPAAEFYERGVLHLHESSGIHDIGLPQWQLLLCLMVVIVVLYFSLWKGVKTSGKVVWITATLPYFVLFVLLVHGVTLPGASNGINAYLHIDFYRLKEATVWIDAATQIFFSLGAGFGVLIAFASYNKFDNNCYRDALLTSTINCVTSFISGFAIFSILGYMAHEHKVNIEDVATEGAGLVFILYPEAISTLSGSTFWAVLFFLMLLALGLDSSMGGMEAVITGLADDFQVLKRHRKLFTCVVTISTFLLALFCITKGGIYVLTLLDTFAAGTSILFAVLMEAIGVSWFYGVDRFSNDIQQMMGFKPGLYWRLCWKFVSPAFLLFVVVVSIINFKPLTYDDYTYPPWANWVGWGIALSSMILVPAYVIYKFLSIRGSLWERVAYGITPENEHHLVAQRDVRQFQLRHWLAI
Chain of hDAT (Q01959 whole entry): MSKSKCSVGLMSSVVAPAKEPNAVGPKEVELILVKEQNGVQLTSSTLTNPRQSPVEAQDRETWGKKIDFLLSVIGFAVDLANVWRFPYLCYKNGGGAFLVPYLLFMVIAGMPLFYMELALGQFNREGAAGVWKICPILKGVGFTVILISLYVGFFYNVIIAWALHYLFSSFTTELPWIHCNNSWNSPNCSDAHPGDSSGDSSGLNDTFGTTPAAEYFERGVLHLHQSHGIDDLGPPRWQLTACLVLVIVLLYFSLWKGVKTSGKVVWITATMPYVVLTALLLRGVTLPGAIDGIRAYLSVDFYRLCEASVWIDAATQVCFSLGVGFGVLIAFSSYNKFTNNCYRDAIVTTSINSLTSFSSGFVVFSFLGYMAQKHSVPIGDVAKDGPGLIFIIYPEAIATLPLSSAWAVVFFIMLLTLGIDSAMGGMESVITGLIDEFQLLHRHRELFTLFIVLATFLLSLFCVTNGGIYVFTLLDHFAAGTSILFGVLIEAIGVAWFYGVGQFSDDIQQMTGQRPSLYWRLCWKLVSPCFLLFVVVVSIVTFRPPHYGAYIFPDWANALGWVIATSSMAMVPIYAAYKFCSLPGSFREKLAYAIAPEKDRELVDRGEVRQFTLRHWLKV
Chain of SERT (Q60857 whole entry): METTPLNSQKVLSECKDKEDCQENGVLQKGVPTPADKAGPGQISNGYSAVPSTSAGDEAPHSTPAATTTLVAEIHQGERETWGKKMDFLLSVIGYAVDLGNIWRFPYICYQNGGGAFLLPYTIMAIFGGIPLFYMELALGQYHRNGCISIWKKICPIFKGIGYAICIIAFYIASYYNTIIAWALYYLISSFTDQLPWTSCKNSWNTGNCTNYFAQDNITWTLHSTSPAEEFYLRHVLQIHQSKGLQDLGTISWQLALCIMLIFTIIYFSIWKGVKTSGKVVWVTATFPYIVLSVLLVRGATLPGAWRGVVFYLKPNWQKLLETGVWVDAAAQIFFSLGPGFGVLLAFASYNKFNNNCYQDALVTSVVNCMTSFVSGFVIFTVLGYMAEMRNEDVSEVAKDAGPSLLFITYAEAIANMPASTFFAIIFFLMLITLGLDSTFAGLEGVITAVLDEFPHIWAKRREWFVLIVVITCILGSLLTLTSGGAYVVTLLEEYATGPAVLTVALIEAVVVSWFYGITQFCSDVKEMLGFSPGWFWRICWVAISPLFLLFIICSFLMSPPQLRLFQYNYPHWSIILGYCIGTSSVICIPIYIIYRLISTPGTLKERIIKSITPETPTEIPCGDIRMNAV
Chain of hNET (P23975 whole entry): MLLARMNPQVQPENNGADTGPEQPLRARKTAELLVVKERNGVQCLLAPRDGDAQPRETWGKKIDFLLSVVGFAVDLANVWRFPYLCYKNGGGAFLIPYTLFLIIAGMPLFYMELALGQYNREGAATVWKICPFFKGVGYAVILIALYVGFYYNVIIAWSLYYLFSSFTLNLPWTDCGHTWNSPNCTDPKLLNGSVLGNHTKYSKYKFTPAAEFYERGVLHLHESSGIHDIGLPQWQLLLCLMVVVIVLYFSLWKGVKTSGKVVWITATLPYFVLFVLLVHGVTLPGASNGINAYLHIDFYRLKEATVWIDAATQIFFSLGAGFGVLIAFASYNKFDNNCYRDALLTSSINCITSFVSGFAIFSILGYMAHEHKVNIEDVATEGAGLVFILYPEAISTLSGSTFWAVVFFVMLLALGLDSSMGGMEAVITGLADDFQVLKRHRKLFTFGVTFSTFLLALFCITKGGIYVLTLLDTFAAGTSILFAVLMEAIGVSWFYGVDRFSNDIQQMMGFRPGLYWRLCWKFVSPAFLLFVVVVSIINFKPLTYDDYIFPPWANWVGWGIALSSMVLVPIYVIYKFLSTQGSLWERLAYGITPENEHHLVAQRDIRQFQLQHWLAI
Chain of hSERT (P31645 whole entry): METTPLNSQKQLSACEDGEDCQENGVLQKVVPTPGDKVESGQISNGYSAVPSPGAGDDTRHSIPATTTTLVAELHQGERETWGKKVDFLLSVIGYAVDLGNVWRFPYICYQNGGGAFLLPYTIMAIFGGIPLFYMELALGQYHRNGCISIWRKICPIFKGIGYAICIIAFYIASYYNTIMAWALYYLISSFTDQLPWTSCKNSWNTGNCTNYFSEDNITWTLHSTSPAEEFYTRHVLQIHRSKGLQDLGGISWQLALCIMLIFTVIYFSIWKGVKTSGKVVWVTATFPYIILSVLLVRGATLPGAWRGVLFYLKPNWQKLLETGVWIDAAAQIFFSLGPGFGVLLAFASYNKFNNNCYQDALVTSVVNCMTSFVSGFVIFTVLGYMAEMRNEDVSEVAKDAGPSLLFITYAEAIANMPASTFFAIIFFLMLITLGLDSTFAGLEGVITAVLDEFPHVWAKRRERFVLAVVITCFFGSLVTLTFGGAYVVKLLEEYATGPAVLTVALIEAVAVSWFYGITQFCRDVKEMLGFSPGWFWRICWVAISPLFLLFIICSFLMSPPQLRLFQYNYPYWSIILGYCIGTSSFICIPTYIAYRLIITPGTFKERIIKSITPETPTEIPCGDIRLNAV

SMILES: Fc1ccc(C(OCCN2CCN(CCCc3ccccc3)CC2)c2ccc(F)cc2)cc1 [GBR12909]
- Ki (DAT; 2.7 nM [3H]WIN35,428, striatal homogenates, mean (95% CI), N = 3 mice, read-out: Ki for displacement of [3H]WIN35,428 binding to DAT): 0.001 µM

SMILES: C[n+]1ccc(-c2ccccc2)cc1 [[^3H]MPP^+, 1-methyl-4-phenylpyridinium]
- Km (hOCT3 [1]; used to determine Ki values, read-out: Km for uptake in OCT3 over-expressing cells): 1000 µM

SMILES: CNCCC(Oc1ccccc1OC)c1ccccc1 (stereo not drawn) [[^3H]Nisoxetine]
- Kd (NET [2]): 0.0025 µM

SMILES: COC(=O)[C@H]1[C@@H](c2ccc(F)cc2)C[C@@H]2CC[C@H]1N2C [[^3H]WIN35,428]
- Kd (DAT; saturation assays on striatum of 5 C57BL/6J mice, used to calculate Ki, read-out: Kd of hot ligand at DAT): 0.0078 µM

SMILES: COC(=O)[C@H]1[C@@H](OC(=O)c2ccccc2)C[C@@H]2CC[C@H]1N2C [cocaine]
- Locomotor sensitization, first vs. 4th session Mean Difference (OCT3+/+ and OCT3-/- mice [3]; OCT3+/+ mice): -9.84
- Locomotor sensitization, first vs. 4th session Mean Difference (OCT3+/+ and OCT3-/- mice [3]; OCT3-/- mice): -31.91
- Block of APP+ uptake into hSERT HEK293 cells (hSERT): blocked APP^+ uptake
- Block of APP+ uptake into hDAT HEK293 cells (hDAT; 10 µM cocaine): blocked APP^+ uptake
- Block of fluorescent substrate uptake in hOCT3 HEK293 cells (hOCT3 [4]): does not block fluorescent substrate uptake
- Activity at OCT3 (OCT3): does not have activity at OCT3
- EC50, half maximally effective amount to inhibit DA clearance (T80) ([5]; OCT3+/+ mice): 35 ± 9 pmol
- Emax, maximal inhibition of DA clearance (percent increase in T80) ([5]; OCT3+/+ mice): 150 ± 13%
- percent change in T20-60 value from baseline ([5]; OCT3+/+ mice): 140 ± 8 (16)**/^† percent
- percent change in peak amplitude of DA signal from baseline ([5]; OCT3+/+ mice): 109 ± 14 (16) percent
- Effect on DA clearance time (T80) ([5]; OCT3+/+ mice): inhibited DA clearance
- EC50, half maximally effective amount to inhibit DA clearance (T80) ([5]; OCT3-/- mice): 23 ± 16 pmol
- Emax, maximal inhibition of DA clearance (percent increase in T80) ([5]; OCT3-/- mice): 154 ± 15%
- percent change in T20-60 value from baseline ([5]; OCT3-/- mice): 148 ± 14 (15) percent
- percent change in peak amplitude of DA signal from baseline ([5]; OCT3-/- mice): 106 ± 16 (15) percent
- Effect on DA clearance time (T80) ([5]; OCT3-/- mice): inhibited DA clearance

SMILES: C[C@]12C[C@H](O)[C@H]3[C@@H](CCC4=CC(=O)CC[C@@]43C)[C@@H]1CC[C@@H]2C(=O)CO [corticosterone]
- Block of ASP+ uptake (hOCT3 [6]; 10 µM corticosterone): fully blocked uptake of ASP^+

SMILES: CCO [ethanol]
- Inhibition of ASP+ uptake (hOCT3 [6]; 30 mM ethanol, A.U.C. T80-150 s): ~ 50%
- Block of ASP+ uptake (hOCT3 [6]; 100 mM ethanol): fully blocked uptake of ASP^+
- Displacement of [3H]citalopram binding to SERT (SERT): did not displace
- Displacement of [3H]WIN35,428 binding to DAT (DAT; ethanol 3.4 nM up to 1 M, striatal homogenates): did not displace
- Ki (hOCT3 [1]; hOCT3 HEK293 cells, N = 5 replicate assays in triplicate): 4200 ± 200 µM
- Locomotor sensitization, first vs. 4th session Mean Difference (OCT3+/+ and OCT3-/- mice [3]; OCT3+/+ mice): −12.01
- Sensitization of locomotor activity (OCT3+/+ and OCT3-/- mice [3]; ethanol alone, OCT3+/+ and OCT3-/- mice): no ethanol-induced sensitization
- Inhibition of APP+ uptake into hDAT HEK293 cells (hDAT; highest ethanol concentration tested (100 mM)): only modestly inhibited uptake
- Displacement of [3H]nisoxetine binding to NET (NET [7]): did not displace
- Inhibition of APP+ uptake into hNET HEK293 cells (hNET): only modestly inhibited uptake
- Dialysate ethanol levels in the nucleus accumbens [8]: approximately 6 mM
- percent change in T20-60 value from baseline ([5]; OCT3+/+ mice): 123 ± 8 (14) percent
- percent change in peak amplitude of DA signal from baseline ([5]; OCT3+/+ mice): 80 ± 8 (14) percent
- Effect on DA clearance time (T80) ([5]; OCT3+/+ mice): increased T80 DA clearance time
- percent change in T20-60 value from baseline ([5]; OCT3-/- mice): 100 ± 6 (17)^###/$$ percent
- percent change in peak amplitude of DA signal from baseline ([5]; OCT3-/- mice): 70 ± 8 (17) percent
- Effect on DA clearance time (T80) ([5]; OCT3-/- mice): did not inhibit DA clearance
- Potentiation of CPP for cocaine by ethanol (OCT3+/+ and OCT3-/- mice [9]): did not potentiate CPP for cocaine
